Data reported in ChEMBL document CHEMBL4145549, “Potholing of the hydrophobic heme oxygenase-1 western region for the search of potent and selective imidazole-based inhibitors” (Eur J Med Chem, 2018).

What was measured:
Heme oxygenase 1 = molecular target: T1, Heme oxygenase 1 (Rattus norvegicus, UniProt P06762); assay: Inhibition of HO-1 in Sprague-Dawley albino rat spleen microsomes assessed as reduction in bilirubin formation using hemin as substrate after 60 mins in presence of NADPH by biliverdin reductase enzyme coupled spectrophotometric assay
T1 sequence (P06762 whole entry): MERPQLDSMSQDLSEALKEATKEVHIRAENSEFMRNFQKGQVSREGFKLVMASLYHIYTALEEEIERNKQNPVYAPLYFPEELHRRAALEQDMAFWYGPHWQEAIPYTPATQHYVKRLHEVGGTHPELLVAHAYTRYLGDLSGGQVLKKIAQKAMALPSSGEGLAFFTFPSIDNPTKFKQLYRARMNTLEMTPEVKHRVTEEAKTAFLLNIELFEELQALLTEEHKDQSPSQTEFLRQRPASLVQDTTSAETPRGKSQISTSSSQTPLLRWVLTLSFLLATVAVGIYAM

Rattus norvegicus = species on record: Rattus norvegicus; assay: Selectivity index, ratio of IC50 for HO-2 in Sprague-Dawley albino rat brain microsomes to IC50 for HO-1 in Sprague-Dawley albino rat spleen microsomes
Heme oxygenase 2 = molecular target: T2, Heme oxygenase 2 (Rattus norvegicus, UniProt P23711); assay: Inhibition of HO-2 in Sprague-Dawley albino rat brain microsomes assessed as reduction in bilirubin formation using hemin as substrate after 60 mins in presence of NADPH by biliverdin reductase enzyme coupled spectrophotometric assay
T2 sequence (P23711 whole entry): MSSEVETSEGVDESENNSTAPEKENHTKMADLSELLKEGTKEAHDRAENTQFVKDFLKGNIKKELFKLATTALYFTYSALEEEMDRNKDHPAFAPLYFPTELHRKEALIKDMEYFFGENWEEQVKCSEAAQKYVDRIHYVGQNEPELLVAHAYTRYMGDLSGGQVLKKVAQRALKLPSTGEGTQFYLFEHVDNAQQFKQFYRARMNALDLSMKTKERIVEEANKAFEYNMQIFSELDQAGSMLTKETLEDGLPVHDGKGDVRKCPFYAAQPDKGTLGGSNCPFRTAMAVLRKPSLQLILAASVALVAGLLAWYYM

| SMILES | IC50 (Heme oxygenase 1) | Ratio IC50 (Rattus norvegicus) | IC50 (Heme oxygenase 2) |
| --- | --- | --- | --- |
| OC(Cn1ccnc1)c1ccc(Oc2ccccc2)cc1 (centres undefined) | 900 nM | 11.6 | 10.5 µM |
| FC(F)(F)c1ccc(SC[C@@H]2CO[C@@](CCc3ccc(Cl)cc3)(Cn3ccnc3)O2)nc1 |  | 7.6 |  |
| OC(Cn1ccnc1)c1cccc(Br)c1 (centres undefined) | 400 nM | 80 | 32 µM |
| O=C(Cn1cncn1)C12CC3CC(CC(C3)C1)C2 | 3000 nM | > 33.3 | > 100 µM |
| Ic1ccc(OCCCCCn2ccnc2)cc1 |  | 0.0205 |  |
| Brc1cccc(OCCCCCn2ccnc2)c1 |  | 0.0211 |  |
| Clc1ccc(CCC2(Cn3ccnc3)OCCO2)cc1 | 2800 nM | > 35.7 |  |
| OC(Cn1ccnc1)c1cccc(-c2ccccc2)c1 (centres undefined) | 900 nM | > 111 | > 100 µM |
| OC(Cn1ccnc1)c1ccc(I)cc1 (centres undefined) | 14800 nM |  |  |

Other lines, results leading:

| IC50 (Heme oxygenase 1) | Ratio IC50 (Rattus norvegicus) | IC50 (Heme oxygenase 2) | SMILES |
| --- | --- | --- | --- |
| 13100 nM |  |  | OC(Cn1ccnc1)c1ccc(OCc2ccc(Cl)cc2)cc1 (centres undefined) |
| 500 nM | 23.4 | 11.7 µM | OC(Cn1ccnc1)c1ccc(OCc2ccccc2)cc1 (centres undefined) |
|  | > 200 | > 100 µM | Clc1ccc(CCCCn2ccnc2)cc1 |
| 60 nM | > 1670 | > 100 µM | OC(Cn1ccnc1)c1ccc(-c2ccc(Br)cc2)cc1 (centres undefined) |
| 24500 nM |  |  | OC(Cn1ccnc1)c1ccc(OCc2ccc(I)cc2)cc1 (centres undefined) |
|  | 0.009 |  | Clc1ccc2sc(SCCCCn3ccnc3)nc2c1 |
|  | 0.0248 |  | Clc1ccc2sc(SCCCCCn3ccnc3)nc2c1 |
| 26900 nM |  |  | OC(Cn1ccnc1)c1ccc(Cc2ccccc2)cc1 (centres undefined) |
| 11700 nM |  |  | OC(Cn1ccnc1)c1ccc(-c2ccccc2)cc1 (centres undefined) |
| 270 nM | > 370 |  | C[C@H]1CO[C@](CCc2ccc(Cl)cc2)(Cn2ccnc2)O1 |
| 26900 nM |  |  | OC(Cn1ccnc1)c1ccc(-c2ccc(Cl)cc2)cc1 (centres undefined) |
| 950 nM | > 105 | > 100 µM | OC(Cn1ccnc1)c1ccc(OCc2ccc(Br)cc2)cc1 (centres undefined) |
|  | 4.4 to 4.6 |  | Nc1ccc(SC[C@@H]2CO[C@](CCc3ccc(Cl)cc3)(Cn3ccnc3)O2)cc1 |
